For data set [1] the following is noted: weak bases; cited from earlier work.
The next data set concerns the target T1, OCT2 (Homo sapiens, UniProt O15244, S270A).
T1 sequence (O15244 1-555 S270A): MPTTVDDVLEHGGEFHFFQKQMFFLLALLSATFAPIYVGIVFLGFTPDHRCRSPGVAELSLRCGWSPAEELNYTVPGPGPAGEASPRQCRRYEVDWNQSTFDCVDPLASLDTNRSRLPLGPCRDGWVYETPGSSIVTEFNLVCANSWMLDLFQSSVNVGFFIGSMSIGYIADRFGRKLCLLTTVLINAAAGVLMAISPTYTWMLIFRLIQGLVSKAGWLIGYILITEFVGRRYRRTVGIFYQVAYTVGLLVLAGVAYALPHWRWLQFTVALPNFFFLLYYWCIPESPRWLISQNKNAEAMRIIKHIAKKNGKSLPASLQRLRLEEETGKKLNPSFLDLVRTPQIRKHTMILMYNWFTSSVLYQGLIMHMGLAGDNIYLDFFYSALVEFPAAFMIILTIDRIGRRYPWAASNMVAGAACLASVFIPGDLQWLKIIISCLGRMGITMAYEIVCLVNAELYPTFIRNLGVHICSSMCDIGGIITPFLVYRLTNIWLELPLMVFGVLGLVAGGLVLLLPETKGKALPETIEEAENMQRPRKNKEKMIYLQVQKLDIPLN
Briefly: Substrate search: uptake from fetal bovine serum into OCT2-transfected vs control HEK-293 cells, ESI-LC-MS-MS. To be noted: 30 min incubation with 100% fetal bovine serum, OCT2 vs HEK-293 cells without OCT2.

For data set [2], the system named is HEK-293 cells expressing OCT2. Briefly: MTT reduction cell viability assay, OCT2 (wild-type 400R) transfected HEK-293 cells. To be noted: cyclo(his-pro) 10 µmol/l, 12 h prior to salsolinol treatment. In kind it is cell-based, human. Here is the method:
(§1) Cell viability was assessed in HEK-293 cells, human dopaminergic neuroblastoma cells (SH-SY5Y) and human glioblastoma cells (HTZ-146) by the MTT test as described.[22] […] For indication of metabolic activity, cells were treated with MTT reagent (15 µl of 1 mg/ml stock solution per well) for 1 h, and after drying of culture plates for 1 h at 37°C, the resulting formazan dye was extracted with isopropanol/HCl (100 µl 0.04 mol/l per well) and absorbance was determined spectrophotometrically at 568 nm.
In general terms: Tetrazolium dyes change colour on reduction, which living cells bring about.

In the next data set the test system is OCT2 (wild-type 400R). Described as above. In kind it is cell-based, human. To be noted: human, HEK-293 cells transfected with OCT2 (wild-type 400R); 48 h exposure, no pretreatment; read-out: EC50 (95% confidence interval), cell viability. Here is the method: as §1
A further data set has as its system OCT2 mutant 400C variant. Description: MTT reduction cell viability assay, HEK-293 cells expressing OCT2 mutant 400C variant. In kind it is cell-based. To be noted: human, 48 h exposure after 12 h incubation with cyclo(his-pro) 10 µmol/l, read-out: EC50 (95% confidence interval), cell viability.
Data set [3] relates to HEK-293 cells expressing EMT. Description: MTT reduction cell viability assay, EMT-transfected HEK-293 cells. In kind it is cell-based. To be noted: Homo sapiens, HEK293; 48 h exposure; read-out: EC50 (95% confidence interval), cell viability.

The values below come from paper PMC1851987, “Identification of the Endogenous Key Substrates of the Human Organic Cation Transporter OCT2 and Their Implication in Function of Dopaminergic Neurons” (PLoS ONE, 2007).

Bounds are passed on as bounds.

A word on the EC50: it is the concentration giving half of the maximal effect.

On to `O=C1NC(Cc2c[nH]cn2)C(=O)N2CCCC12` (stereo not drawn) [cyclo(his-pro), histidyl-proline diketopiperazine], for which the pKS in data set [1] was 6.5–7.5. In addition, on OCT2, the “specific uptake from serum, fold above the control” value is above 2 fold. The “effect of pretreatment on salsolinol-induced degeneration” value in data set [2] is “prevented degeneration”.
Consider `CC1NCCc2cc(O)c(O)cc21` (stereo not drawn) [salsolinol], for which the EC50 at 48 h with OCT2 (wild-type 400R) was 192 µM; in the data set on OCT2 mutant 400C variant, 406 µM. Moreover, the EC50 in data set [3] amounted to 998 µM.
